In one assay the target is 5-HT2A receptor (Rattus norvegicus (Rat), UniProt P14842). Description: Binding to 5-HT2A receptor ([3H]-Ketanserin, rat cortical membranes). Further details: species or system Sprague-Dawley (SD) rats. As to conditions: for inhibition at 1 µM: 1 h, read-out: 5-HT2A: Suppression; for IC50: 0.5 nM [3H]-Ketanserin, read-out: 5-HT2A: IC50 (Concentration required to be 50% suppressed). As for the experimental part:
Binding to 5-HT2A Receptor
6-week-old Sprague-Dawley (SD) rats were anesthetized in an ether container for 5 minutes, brains were separated from rats, and cortical regions were then separated from the brains of the rats. The cortical regions of the rats were put into a Tris-HCl buffer solution (50 mM, pH 7.7) and homogenized, and the homogenate was centrifuged twice at 4° C. at a rotary speed of 50,000 g to obtain a precipitate (membrane protein). The precipitate was put into a buffer solution, and homogenized, which was used later as a protein source. 0.5 nM [3H]-Ketanserin was used as a radioactive isotope, and 10 uM serotonin was used to remove non-specific bindings. 25 ul of the compound, 100 ul of an aqueous radioactive isotope solution, and 100 ul of the protein source were put together, and kept at 25° C. for 1 hour. The resulting mixture was filtered with a membrane filter in a 96-well harvester when the 96-well plate reaction was completed. The competitivity of the compound to [3H]-Ketanserin was determined by taking the membrane filter and measuring the radioactivity in a scintillation counter, and an IC50 value was determined by measuring the increasing concentration of the compound. The specific reaction of the compound accounted for 90% or more. The general experiments were carried out according to the method by Leysen et al. (1982, Eur. J. Pharmacol).

Assay [1] relates to male ICR mouse. Description: Acetic acid-induced writhing test in mouse. As to conditions: Mus musculus; for inhibition in vivo at 10 mg/kg: at 10 po (method: 10 mg/kg oral, 1 hour before acetic acid), read-out: AA Writhing: Suppression ratio of Pain response; for ED50: unit not given (method doses in mg/kg), read-out: AA Writhing: ED50. Type of assay: in vivo. In short, it runs like this:
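Male ICR mice (30 to 35 g) dosed orally at 10 mg/kg, then given 0.8% acetic acid i.p. 1 h later. Writhes counted for 10 min and expressed as % suppression against vehicle. ED50 derived by linear regression over at least three doses.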

The target of another assay is 5-HT1A receptor (Rattus norvegicus (Rat), UniProt P19327). Description: Binding to 5-HT1A receptor ([3H]-8-OH-DPAT, rat cortical membranes). Further details: species or system Sprague-Dawley (SD) rats. As to conditions: for inhibition at 1 µM: 1 h, read-out: 5-HT1A: Suppression; for IC50: 2 nM [3H]-8-OH-DPAT, read-out: 5-HT1A: IC50 (Concentration required to be 50% suppressed). As for the experimental part: Binding to 5-HT1A Receptor
6-week-old Sprague-Dawley (SD) rats were anesthetized in an ether container for 5 minutes, brains were separated from rats, and cortical regions were then separated from the brains of the rats. The cortical regions of the rats were put into a Tris-HCl buffer solution (50 mM, pH 7.4) and homogenized, and the homogenate was centrifuged twice at 4? at a rotary speed of 50,000 g to obtain a precipitate (membrane protein). The precipitate was put into a buffer solution, and homogenized, which was used later as a protein source. 2 nM [3H]-8-OH-DPAT was used as a radioactive isotope, and 10 uM serotonin was used to remove non-specific bindings. 25 ul of the compound, 100 ul of an aqueous radioactive isotope solution, and 100 ul of the protein source were put together, and kept at 25° C. for 1 hour. The resulting mixture was filtered with a membrane filter in a 96-well harvester when the 96-well plate reaction was completed. The competitivity of the compound to [3H]-8-OH-DPAT was determined by taking the membrane filter and measuring the radioactivity of the membrane filter in a scintillation counter, and an IC50 value was determined by measuring the increasing concentration of the compound. The specific reaction of the compound accounted for 90% or more. The general experiments were carried out according to the method by Middlemiss et al. (1984, Eur. J. Pharmacol.).

The test system of assay [2] is male ICR mouse. Description: Formalin test - late phase in mouse. Type of assay: in vivo. As to conditions: po, unit inferred. As for the experimental part:
3. Formalin Test—Late Phase in Mouse
A formalin test is another model for measuring an analgesic effect of drugs. […] These pain behaviors have a biphasic pattern, and therefore they are divided into an early-phase behavior within […] after the formalin administration; and a late-phase behavior up to 10 to 60 minutes. The medicinal effect observed in the formalin test-late phase means an analgesic effect of the test material in the inflammatory pain model, and also becomes a measure that may predict the medicinal effects in the neuropathic pain model (Vissers K et. al, 2003). A test material was orally administered to a male ICR mouse weighing 30 to 35 g. After 1 hour of the oral administration, 20 μl of a 2.5% formalin solution was subcutaneously injected into the planta surface of a mouse's hindlimb to induce pain. […] The analgesic effect of the test material is represented by the ‘suppression ratio of pain response’ {[(Pain response time of Vehicle-administered group−Pain response time of Test material-administered group)/(Pain response time of Vehicle-administered group)]×100%}, or ‘50% of Effective amount (ED50; an amount of a test material that is required to suppress 50% of pain behaviors) of Test material’. The ED50 (median effective dose) was determined by calculating the suppression ratio of pain response in at least three doses of test materials and subjecting to the linear regression.

Where two headings read alike, the source gives them in different places.

5-HT1A receptor, sequence (P19327 whole entry): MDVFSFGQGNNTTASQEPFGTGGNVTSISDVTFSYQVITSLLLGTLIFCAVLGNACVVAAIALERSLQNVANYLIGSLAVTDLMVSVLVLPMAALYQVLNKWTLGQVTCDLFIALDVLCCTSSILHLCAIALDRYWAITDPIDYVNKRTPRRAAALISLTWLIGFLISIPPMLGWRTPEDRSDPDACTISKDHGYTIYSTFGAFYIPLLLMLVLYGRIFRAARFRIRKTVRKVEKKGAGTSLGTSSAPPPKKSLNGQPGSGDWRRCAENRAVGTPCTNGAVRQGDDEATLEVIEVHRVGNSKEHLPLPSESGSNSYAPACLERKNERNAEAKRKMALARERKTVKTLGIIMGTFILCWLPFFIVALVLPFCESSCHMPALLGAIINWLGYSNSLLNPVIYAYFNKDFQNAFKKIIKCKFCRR
5-HT2A receptor, sequence (P14842 whole entry): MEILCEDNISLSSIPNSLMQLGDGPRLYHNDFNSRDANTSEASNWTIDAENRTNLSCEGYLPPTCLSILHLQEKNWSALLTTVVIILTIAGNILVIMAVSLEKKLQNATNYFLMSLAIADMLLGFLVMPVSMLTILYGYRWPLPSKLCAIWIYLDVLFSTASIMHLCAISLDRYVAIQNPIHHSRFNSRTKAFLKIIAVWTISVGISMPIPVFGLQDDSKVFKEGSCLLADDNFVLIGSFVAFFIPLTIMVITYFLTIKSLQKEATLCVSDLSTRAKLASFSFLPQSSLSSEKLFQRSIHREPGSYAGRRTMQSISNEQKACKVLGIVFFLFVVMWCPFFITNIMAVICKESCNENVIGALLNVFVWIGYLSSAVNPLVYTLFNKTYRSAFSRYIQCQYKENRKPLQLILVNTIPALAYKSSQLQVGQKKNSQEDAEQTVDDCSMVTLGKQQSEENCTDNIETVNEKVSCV

As for `NC(=O)OC(CCN1CCN(c2ccccc2)CC1)c1cccc([N+](=O)[O-])c1` (centres unmarked) [Example 4, Carbamic acid 1-(3-nitro-phenyl)-3-(4-phenyl-piperazin-1-yl)-propyl ester], the inhibition at 1 µM stood at 86.4% at 5-HT2A receptor and 74.6% at 5-HT1A receptor. Besides, the inhibition in vivo at 10 mg/kg in the assay on male ICR mouse [1] (po, 1 h) worked out at 48%.
As for `CC(C)(C)c1ccc(C(CCN2CCN(c3ccccc3)CC2)OC(N)=O)cc1` (centres unmarked) [Example 5, Carbamic acid 1-(4-tert-butyl-phenyl)-3-(4-phenyl-piperazin-1-yl)-propyl ester], the values for the inhibition at 1 µM on 5-HT2A receptor and on 5-HT1A receptor were 98.8% and 44.4%, respectively. In addition, in the assay with male ICR mouse [1] (po, 1 h), the inhibition in vivo at 10 mg/kg was determined as 62%.
Take `NC(=O)OC(CCN1CCN(c2ccccc2)CC1)c1cccc(Cl)c1` (centres unmarked) [Example 7, Carbamic acid 1-(3-chloro-phenyl)-3-(4-phenyl-piperazin-1-yl)-propyl ester]: the inhibition at 1 µM on 5-HT2A receptor worked out at 93.7%; on 5-HT1A receptor, 76.4%. In addition, the inhibition in vivo at 10 mg/kg in the assay with male ICR mouse [1] (po, 1 h) came out at 59%.
On to `COc1ccc(C(CCN2CCN(c3ccccc3)CC2)OC(N)=O)cc1` (centres unmarked) [Example 8, Carbamic acid 1-(4-methoxy-phenyl)-3-(4-phenyl-piperazin-1-yl)-propyl ester], for which the inhibition at 1 µM at 5-HT2A receptor was 82%; at 5-HT1A receptor, 67.7%. Besides, the inhibition in vivo at 10 mg/kg in the assay on male ICR mouse [1] (po, 1 h) is 43%.
Consider `Cc1ccc(C(CCN2CCN(c3ccccc3)CC2)OC(N)=O)cc1` (centres unmarked) [Example 10, Carbamic acid 3-(4-phenyl-piperazin-1-yl)-1-p-tolyl-propyl ester], for which the inhibition at 1 µM at 5-HT2A receptor was determined as 85.6%; at 5-HT1A receptor it was 59.6%.
`NC(=O)OC(CCN1CCN(c2ccc(F)cc2)CC1)c1ccccc1` (centres unmarked) [Example 21, Carbamic acid 3-[4-(4-fluoro-phenyl)-piperazin-1-yl]-1-phenyl-propyl ester]: the figures for the IC50 at 5-HT2A receptor and at 5-HT1A receptor were 64.5 nM and 1050 nM, respectively. Also, the inhibition in vivo at 10 mg/kg in the assay on male ICR mouse [1] amounted to 88%.
Consider `NC(=O)OC(CCN1CCN(c2ccc(Cl)cc2)CC1)c1ccccc1` (centres unmarked) [Example 22, Carbamic acid 3-[4-(4-chloro-phenyl)-piperazin-1-yl]-1-phenyl-propyl ester], for which the IC50 was found to be 264 nM on 5-HT2A receptor and 1860 nM on 5-HT1A receptor.
`NC(=O)OC(CCN1CCN(c2ccccn2)CC1)c1ccccc1` (centres unmarked) [Example 25, Carbamic acid 1-phenyl-3-(4-pyridin-2-yl-piperazin-1-yl)-propyl ester]: the IC50 on 5-HT2A receptor is 448 nM; at 5-HT1A receptor it was 338 nM.
Regarding `COc1cccc(N2CCN(CCC(OC(N)=O)c3ccccc3)CC2)c1` (centres unmarked) [Example 26, Carbamic acid 3-[4-(3-methoxy-phenyl)-piperazin-1-yl]-1-phenyl-propyl ester], the IC50 at 5-HT2A receptor came out at 502 nM; on 5-HT1A receptor, 80.8 nM.
With `COc1ccccc1N1CCN(CCC(OC(N)=O)c2ccccc2)CC1` (centres unmarked) [Example 27, Carbamic acid 3-[4-(2-methoxy-phenyl)-piperazin-1-yl]-1-phenyl-propyl ester], the values for the IC50 at 5-HT2A receptor and on 5-HT1A receptor were 164 nM and 97.6 nM, respectively. Moreover, the ED50 with male ICR mouse [1] (po) is 7.8 mg/kg.
For `NC(=O)OC(CCN1CCN(c2cccc(Cl)c2)CC1)c1ccccc1` (centres unmarked) [Example 36, Carbamic acid 3-[4-(3-chloro-phenyl)-piperazin-1-yl]-1-phenyl-propyl ester], the IC50 on 5-HT2A receptor is 61.5 nM; on 5-HT1A receptor, 93.8 nM. The ED50 in the assay on male ICR mouse [1] (po) came to 17.5 mg/kg.
With `Cc1ccccc1N1CCN(CCC(OC(N)=O)c2ccccc2)CC1` (centres unmarked) [Example 37, Carbamic acid 1-phenyl-3-(4-o-tolylpiperazin-1-yl)-propyl ester], the median effective dose (ED50) was found to be 42.4 mg/kg in the assay with male ICR mouse [2] and 1.96 mg/kg in the assay on male ICR mouse [1] (ip).
`NC(=O)OC(CCN1CCN(c2cccc(C(F)(F)F)c2)CC1)c1ccccc1` (centres unmarked) [Example 39, Carbamic acid 1-phenyl-3-[4-(3-trifluoromethyl-phenyl)-piperazin-1-yl]-propyl ester]: the IC50 was determined as 660 nM at 5-HT2A receptor and 12.6 nM at 5-HT1A receptor.
As for `COc1ccccc1N1CCN(CCC(OC(N)=O)c2ccc(F)cc2)CC1` (centres unmarked) [Example 78, Carbamic acid 1-(4-fluoro-phenyl)-3-[4-(2-methoxy-phenyl)-piperazin-1-yl]-propyl ester], the figures for the inhibition at 1 µM on 5-HT2A receptor and on 5-HT1A receptor were 71.5% and 79%, respectively. Besides, the inhibition in vivo at 10 mg/kg in the assay on male ICR mouse [1] (po, 1 h) was determined as 34%.
As to `NC(=O)OC(CCN1CCN(c2ccc([N+](=O)[O-])cc2)CC1)c1ccc(F)cc1` (centres unmarked) [Example 79, Carbamic acid 1-(4-fluoro-phenyl)-3-[4-(4-nitro-phenyl)-piperazin-1-yl]-propyl ester], the inhibition at 1 µM at 5-HT2A receptor and at 5-HT1A receptor was 29.6% in each case. The inhibition in vivo at 10 mg/kg in the assay on male ICR mouse [1] (po, 1 h) amounted to 70%.
Regarding `Cc1ccccc1N1CCN(CCC(OC(N)=O)c2ccc(F)cc2)CC1` (centres unmarked) [Example 80, Carbamic acid 1-(4-fluoro-phenyl)-3-(4-o-tolyl-piperazin-1-yl)-propyl ester], the inhibition at 1 µM came out at 76.8% at 5-HT2A receptor and 75.3% on 5-HT1A receptor. The inhibition in vivo at 10 mg/kg in the assay on male ICR mouse [1] (po, 1 h) is 29%.
Turning to `NC(=O)OC(CCN1CCN(c2ccc(F)cc2)CC1)c1ccc(F)cc1` (centres unmarked) [Example 81, Carbamic acid 1-(4-fluoro-phenyl)-3-[4-(4-fluoro-phenyl)-piperazin-1-yl]-propyl ester], the results for the inhibition at 1 µM at 5-HT2A receptor and on 5-HT1A receptor were 93.9% and 60.9%, respectively. The inhibition in vivo at 10 mg/kg with male ICR mouse [1] (po, 1 h) stood at 52%.
On to `NC(=O)OC(CCN1CCN(C(c2ccc(F)cc2)c2ccc(F)cc2)CC1)c1ccccc1` (centres unmarked) [Example 93, Carbamic acid 3-{4-[bis-(4-fluoro-phenyl)-methyl]-piperazin-1-yl}-1-phenyl-propyl ester], for which the values for the IC50 at 5-HT2A receptor and at 5-HT1A receptor were 940 nM and greater than 10000 nM, respectively.
Turning to `COc1ccccc1N1CCN(CCCC(OC(N)=O)c2ccccc2)CC1` (centres unmarked) [Example 95, Carbamic acid 4-[4-(2-methoxy-phenyl)-piperazin-1-yl]-1-phenyl-butyl ester], the values for the IC50 at 5-HT2A receptor and on 5-HT1A receptor were 1500 nM and 5.82 nM, respectively.
Consider `NC(=O)OC(CCCN1CCN(c2ccccn2)CC1)c1ccccc1` (centres unmarked) [Example 96, Carbamic acid 1-phenyl-4-(4-pyridin-2-yl-piperazin-1-yl)-butyl ester], for which the IC50 was 3140 nM at 5-HT2A receptor and 20.4 nM on 5-HT1A receptor.
For the molecule `NC(=O)OC(CCCN1CCN(c2ncccc2Cl)CC1)c1ccccc1` (centres unmarked) [Example 97, Carbamic acid 4-[4-(3-chloro-pyridin-2-yl)-piperazin-1-yl]-1-phenyl-butyl ester], the IC50 was found to be 519 nM at 5-HT2A receptor and 181 nM on 5-HT1A receptor.

The values are drawn from patent US8815852B2, “Carbamoyloxy arylalkan arylpiperazine analgesics” (SK Biopharmaceuticals Co., Ltd., priority 2007, dated 2014).
